Converted amounts (≈) assume the structure as drawn. Where two headings read alike, the source gives them in different places.
Tests used:
Type in all cases: cell-based, Staphylococcus aureus
MRSA (KCCM 40511) [1] = assay: Minimum inhibitory concentration, two-fold serial dilution, MRSA KCCM 40511
Description: (§1) All the bacterial strains used for the Example were obtained from the Korean Collection of Type Cultures (KCTC; Daejeon, Korea) and the Korean Culture Center of Microorganisms (KCCM; Seoul, Korea). The bacterial strains used for the Example were methicillin-susceptible S. aureus (MSSA; KCTC 1927), two MRSA strains (KCCM 40510 and KCCM 40511). All strains were grown in Mueller-Hinton broth (MHB; Difco, Detroit, USA) or Tryptic soy broth (TSB; Difco) for minimum inhibitory concentration (MIC) assay and in Mueller-Hinton agar (MHA; Difco) for disc diffusion.
(§2) MIC means the lowest concentration of antimicrobials that will inhibit the visible growth of microorganisms after overnight incubation. MICS of the extracts and vancomycin were determined by the two-fold serial dilution method in MHB.

MSSA (KCCTC 1927) = assay: Checkerboard synergy of phlorofucofuroeckol-A and β-lactams, MSSA KCTC 1927; settings: for MIC: Staphylococcus aureus, MSSA; for FIC index (b): β-lactam with phlorofucofuroeckol-A at 12.5 μg/ml; for FIC index (b) / FIC index (c): synergism ≦0.5, indifference >0.5 to ≦4, antagonism >4; for FIC index (c): β-lactam with phlorofucofuroeckol-A at 25 μg/ml
MRSA (KCCM 40510) [2] = assay: Minimum inhibitory concentration, two-fold serial dilution, MRSA KCCM 40510
Description: as §1, §2

MRSA (KCCM 40511) [3] = assay: Checkerboard synergy of phlorofucofuroeckol-A and β-lactams, MRSA KCCM 40511; settings: for MIC: Staphylococcus aureus; for FIC index (b): β-lactam with phlorofucofuroeckol-A at 12.5 μg/ml; for FIC index (b) / FIC index (c): synergism ≦0.5, indifference >0.5 to ≦4, antagonism >4; for FIC index (c): β-lactam with phlorofucofuroeckol-A at 25 μg/ml
Description: (§3) The interaction between phlorofucofuroeckol-A (PFF) and β-lactams including ampicillin, penicillin and oxacillin against MRSA was tested by the checkerboard method. The synergistic effect was evaluated as a fractional inhibitory concentration (FIC) index. The FIC was calculated as the MICS of an antibiotic or phlorofucofuroeckol-A (PFF) in combination divided by the MIC of the antibiotic or PFF alone as follows.
(§4) The FIC was then summed to derive the FIC index, which indicated synergy when index values were as follows:
(§5) synergism ≦≦0.5, indifference >0.5 to ≦≦4, antagonism >4.
(§6) FICA=MICA in combination/MICA, FICB=MICB in combination/MICB

MRSA (KCCM 40510) [4] = assay: Checkerboard synergy of phlorofucofuroeckol-A and β-lactams, MRSA KCCM 40510; settings: for MIC: Staphylococcus aureus; for FIC index (b): β-lactam with phlorofucofuroeckol-A at 12.5 μg/ml; for FIC index (b) / FIC index (c): synergism ≦0.5, indifference >0.5 to ≦4, antagonism >4; for FIC index (c): β-lactam with phlorofucofuroeckol-A at 25 μg/ml
Description: as §3, §4, §5, §6

MSSA (KCTC 1927) = assay: Minimum inhibitory concentration, two-fold serial dilution, MSSA KCTC 1927
Description: as §1, §2

[5] = Staphylococcus aureus, Table 5, PFF and β-lactams, mecA positive strain, read-out: MIC
[6] = in combination with phlorofucofuroeckol-A at 12.5 μg/ml, read-out: MIC of β-lactam (B)
[7] = in combination with phlorofucofuroeckol-A at 25 μg/ml, read-out: MIC of β-lactam (C)
[8] = without phlorofucofuroeckol-A, read-out: MIC of β-lactam (A)
[9] = Staphylococcus aureus, Table 6, isolated phlorotannins, read-out: MIC
[10] = Table 5, PFF and β-lactams, mecA positive strain
[11] = in combination with phlorofucofuroeckol-A at 12.5 μg/ml
[12] = in combination with phlorofucofuroeckol-A at 25 μg/ml
[13] = Table 6, isolated phlorotannins

Compound: Cc1onc(-c2ccccc2)c1C(=O)N[C@@H]1C(=O)N2[C@@H]1SC(C)(C)[C@@H]2C(=O)O [Oxacillin, oxacillin]
- MIC (MRSA (KCCM 40511) [1]; [5]): 128 µg/mL (≈ 319 µM)
- MIC (MSSA (KCCTC 1927); [6]): 0.063 µg/mL
- MIC (MSSA (KCCTC 1927); [7]): 0.063 µg/mL
- MIC (MSSA (KCCTC 1927); [8]): 0.063 µg/mL
- FIC index (b) (MSSA (KCCTC 1927)): 1.391
- FIC index (c) (MSSA (KCCTC 1927)): 1.781
- MIC (MRSA (KCCM 40510) [2]; [5]): 256 µg/mL (≈ 638 µM)
- MIC (MRSA (KCCM 40511) [3]; [6]): 1 µg/mL
- MIC (MRSA (KCCM 40511) [3]; [7]): 0.5 µg/mL
- MIC (MRSA (KCCM 40511) [3]; [8]): 128 µg/mL
- FIC index (b) (MRSA (KCCM 40511) [3]): 0.399
- FIC index (c) (MRSA (KCCM 40511) [3]): 0.395
- MIC (MRSA (KCCM 40510) [4]; [6]): 8 µg/mL
- MIC (MRSA (KCCM 40510) [4]; [7]): 4 µg/mL
- MIC (MRSA (KCCM 40510) [4]; [8]): 256 µg/mL
- FIC index (b) (MRSA (KCCM 40510) [4]): 0.422
- FIC index (c) (MRSA (KCCM 40510) [4]): 0.407
- MIC (MSSA (KCTC 1927); Staphylococcus aureus, Table 5, PFF and β-lactams, mecA negative strain, read-out: MIC): 0.063 µg/mL (≈ 0.157 µM)

Compound: Oc1cc(O)cc(Oc2c(O)cc(O)c3c2Oc2c(O)cc(Oc4c(O)cc(Oc5c(O)cc(O)c6c5Oc5c(O)cc(O)cc5O6)cc4O)cc2O3)c1 [DE, dieckol]
- MIC (MRSA (KCCM 40511) [1]; Staphylococcus aureus): 64 µg/mL (≈ 86.2 µM)
- MIC (MRSA (KCCM 40510) [2]; [9]): 32 µg/mL (≈ 43.1 µM)
- MIC (MSSA (KCTC 1927); [9]): 32 µg/mL (≈ 43.1 µM)

Compound: Oc1cc(O)c2oc3cc(O)c4oc5cc(O)cc(O)c5oc4c3oc2c1 [DD, dioxinodehydroeckol]
- MIC (MRSA (KCCM 40511) [1]; Staphylococcus aureus): 64 µg/mL (≈ 173 µM)
- MIC (MRSA (KCCM 40510) [2]; Staphylococcus aureus): 64 µg/mL (≈ 173 µM)
- MIC (MSSA (KCTC 1927); Staphylococcus aureus): 64 µg/mL (≈ 173 µM)

Compound: penicillin
- MIC (MRSA (KCCM 40511) [1]; [10]): 256 µg/mL
- MIC of β-lactam (B) (MSSA (KCCTC 1927); [11]): 0.125 µg/mL
- MIC of β-lactam (C) (MSSA (KCCTC 1927); [12]): 0.125 µg/mL
- MIC of β-lactam (A) (MSSA (KCCTC 1927); without phlorofucofuroeckol-A): 0.125 µg/mL
- FIC index (b) (MSSA (KCCTC 1927)): 1.391
- FIC index (c) (MSSA (KCCTC 1927)): 1.781
- MIC (MRSA (KCCM 40510) [2]; [10]): 512 µg/mL
- MIC of β-lactam (B) (MRSA (KCCM 40511) [3]; [11]): 1 µg/mL
- MIC of β-lactam (C) (MRSA (KCCM 40511) [3]; [12]): 0.5 µg/mL
- MIC of β-lactam (A) (MRSA (KCCM 40511) [3]; without phlorofucofuroeckol-A): 256 µg/mL
- FIC index (b) (MRSA (KCCM 40511) [3]): 0.395
- FIC index (c) (MRSA (KCCM 40511) [3]): 0.393
- MIC of β-lactam (B) (MRSA (KCCM 40510) [4]; [11]): 4 µg/mL
- MIC of β-lactam (C) (MRSA (KCCM 40510) [4]; [12]): 2 µg/mL
- MIC of β-lactam (A) (MRSA (KCCM 40510) [4]; without phlorofucofuroeckol-A): 512 µg/mL
- FIC index (b) (MRSA (KCCM 40510) [4]): 0.399
- FIC index (c) (MRSA (KCCM 40510) [4]): 0.395
- MIC (MSSA (KCTC 1927); Table 5, PFF and β-lactams, mecA negative strain): 0.125 µg/mL

Compound: fucofuroeckol-A [FF]
- MIC (MRSA (KCCM 40511) [1]; [13]): 64 µg/mL
- MIC (MRSA (KCCM 40510) [2]; [13]): 64 µg/mL
- MIC (MSSA (KCTC 1927); [13]): 32 µg/mL
